Experimental data from patent US10752584B2 (EMORY UNIVERSITY, priority 2016, dated 2020).

Experiments:
Format in all cases: cell-based
[1] = Cellular toxicity assay in HepG2 cells; conditions: human, read-out: Cytotoxicity
Method: (§1) The toxicity of the compounds was assessed in Vero, human PBM, CEM (human lymphoblastoid), MT-2, and HepG2 cells, as described previously (see Schinazi R. F., Sommadossi J.-P., Saalmann V., Cannon D. L., Xie M.-Y., Hart G. C., Smith G. A. & Hahn E. F. Antimicrob. Agents Chemother. 1990, 34, 1061-67). Cycloheximide was included as positive cytotoxic control, and untreated cells exposed to solvent were included as negative controls. The cytotoxicity IC50 was obtained from the concentration-response curve using the median effective method described previously (see Chou T.-C. & Talalay P. Adv. Enzyme Regul. 1984, 22, 27-55; Belen'kii M. S. & Schinazi R. F. Antiviral Res. 1994, 25, 1-11).

[2] = Cellular toxicity assay in Vero cells; conditions: African green monkey, read-out: Cytotoxicity
Method: as §1

[3] = tested on: wild type HBV; experiment: Anti-HBV assay in AD-38 cell line; conditions: Hepatitis B virus, AD-38 cells, HBV in culture supernatant; for EC50: read-out: Anti-HBV activity EC50; for EC90: read-out: Anti-HBV activity EC90
Method: The anti-HBV activity of the compounds was determined by treating the AD-38 cell line carrying wild type HBV under the control of tetracycline (see Ladner S. K., Otto M. J., Barker C. S., Zaifert K., Wang G. H., Guo J. T., Seeger C. & King R. W. Antimicrob. Agents Chemother. 1997, 41, 1715-20). Removal of tetracycline from the medium [Tet (−)] results in the production of HBV. The levels of HBV in the culture supernatant fluids from cells treated with the compounds were compared with that of the untreated controls. Control cultures with tetracycline [Tet (+)] were also maintained to determine the basal levels of HBV expression. 3TC was included as positive control.
The median effective concentrations (EC50) ranges of several of the compounds described herein against HBV are shown in Table 3: […]

[4] = Cellular toxicity assay in CEM cells; conditions: human, CEM lymphoblastoid cells, read-out: Cytotoxicity
Method: as §1

[5] = Cellular toxicity assay in human PBM cells; conditions: human, human PBM cells, read-out: Cytotoxicity
Method: as §1

Row | Compound | CC50 [1] | CC50 [2] | EC50 [3] | CC50 [4] | CC50 [5] | EC90 [3]
1 | C#CCNC(=O)C(=O)c1c(C)c(C(=O)NC2(c3ccc(F)c(F)c3)CC2)n(C)c1C [Compound 57, N-(1-(3,4-difluorophenyl)cyclopropyl)-1,3,5-trimethyl-4-(2-oxo-2-(prop-2-yn-1-ylamino)acetyl)-1H-pyrrole-2-carboxamide] | > 100 µM | > 100 µM | 1 to 9 µM | > 100 µM | > 100 µM | 
2 | C#CCNC(=O)C(=O)c1c(C)c(C(=O)Nc2ccccc2)n(C)c1C [Compound 58, 1,3,5-trimethyl-4-(2-oxo-2-(prop-2-yn-1-ylamino)acetyl)-N-phenyl-1H-pyrrole-2-carboxamide] | > 100 µM | > 100 µM | 0.01 to 0.09 µM | > 100 µM | > 100 µM | 0.1 to 0.9 µM
3 | C#CCNC(=O)C(=O)c1c(C)c(C(=O)Nc2ccc(S(F)(F)(F)(F)F)cc2)n(C)c1C [Compound 59, 1,3,5-trimethyl-4-(2-oxo-2-(prop-2-yn-1-ylamino)acetyl)-N-(4-(pentafluorosulfanyl)phenyl)-1H-pyrrole-2-carboxamide] | 43 µM | 12 µM | 1 to 9 µM | 3 µM | 44 µM | 
4 | C#CCNC(=O)C(=O)c1c(C)c(C(=O)Nc2cccc(S(F)(F)(F)(F)F)c2)n(C)c1C [Compound 60, 1,3,5-trimethyl-4-(2-oxo-2-(prop-2-yn-1-ylamino)acetyl)-N-(3-(pentafluorosulfanyl)phenyl)-1H-pyrrole-2-carboxamide] | > 100 µM | 82 µM | 0.1 to 0.9 µM | 23 µM | 86 µM | 0.1 to 0.9 µM
5 | C#CCNC(=O)C(=O)c1c(C)c(C(=O)Nc2ccc(F)nc2)n(C)c1C [Compound 61, N-(6-fluoropyridin-3-yl)-1,3,5-trimethyl-4-(2-oxo-2-(prop-2-yn-1-ylamino)acetyl)-1H-pyrrole-2-carboxamide] | > 100 µM | > 100 µM | 0.1 to 0.9 µM | > 100 µM | > 100 µM | 0.1 to 0.9 µM
6 | C#CCNC(=O)C(=O)c1c(C)c(C(=O)Nc2cncnc2)n(C)c1C [Compound 62, 1,3,5-trimethyl-4-(2-oxo-2-(prop-2-yn-1-ylamino)acetyl)-N-(pyrimidin-5-yl)-1H-pyrrole-2-carboxamide] | > 100 µM | > 100 µM | 1 to 9 µM | > 100 µM | > 100 µM | 1 to 9 µM
7 | C#CCNC(=O)C(=O)c1c(C)c(C(=O)Nc2ccncc2)n(C)c1C [Compound 63, 1,3,5-trimethyl-4-(2-oxo-2-(prop-2-yn-1-ylamino)acetyl)-N-(pyridin-4-yl)-1H-pyrrole-2-carboxamide] | > 100 µM | > 100 µM | 0.1 to 0.9 µM | > 100 µM | > 100 µM | 1 to 9 µM
8 | C#CCNC(=O)C(=O)c1c(C)c(C(=O)Nc2ccc(F)c(C)c2)n(C)c1C [Compound 64, N-(4-fluoro-3-methylphenyl)-1,3,5-trimethyl-4-(2-oxo-2-(prop-2-yn-1-ylamino)acetyl)-1H-pyrrole-2-carboxamide] | > 100 µM | 96 µM | 0.0001 to 0.0009 µM | 18 µM | > 100 µM | 0.001 to 0.009 µM
9 | C#CCNC(=O)C(=O)c1c(C)c(C(=O)Nc2ccc(F)c(Cl)c2)n(C)c1C [Compound 66, N-(3-chloro-4-fluorophenyl)-1,3,5-trimethyl-4-(2-oxo-2-(prop-2-yn-1-ylamino)acetyl)-1H-pyrrole-2-carboxamide] | 83 µM | 70 µM | 0.001 to 0.009 µM | 52 µM | > 100 µM | 0.01 to 0.09 µM
10 | Cc1c(C(=O)C(=O)Nc2ccccc2)c(C)n(C)c1C(=O)Nc1ccc(F)c(F)c1 [Compound 69, N-(3,4-difluorophenyl)-1,3,5-trimethyl-4-(2-oxo-2-(phenylamino)acetyl)-1H-pyrrole-2-carboxamide] | 59 µM | 48 µM | 0.001 to 0.009 µM | > 100 µM | > 100 µM | 0.01 to 0.09 µM
11 | Cc1c(C(=O)C(=O)N2CCOCC2)c(C)n(C)c1C(=O)Nc1ccc(F)c(F)c1 [Compound 72, N-(3,4-difluorophenyl)-1,3,5-trimethyl-4-(2-morpholino-2-oxoacetyl)-1H-pyrrole-2-carboxamide] | 100 µM | 51 µM | 0.1 to 0.9 µM | 14 µM | 30 µM | 0.1 to 0.9 µM
12 | C=CCNC(=O)C(=O)c1c(C)c(C(=O)Nc2ccc(F)c(F)c2)n(C)c1C [Compound 75, 4-(2-(allylamino)-2-oxoacetyl)-N-(3,4-difluorophenyl)-1,3,5-trimethyl-1H-pyrrole-2-carboxamide] | > 100 µM | 33 µM | 0.001 to 0.009 µM | 66 µM | > 100 µM | 0.01 to 0.09 µM
13 | Cc1c(C(=O)C(=O)Nc2nccs2)c(C)n(C)c1C(=O)Nc1ccc(F)c(F)c1 [Compound 78, N-(3,4-difluorophenyl)-1,3,5-trimethyl-4-(2-oxo-2-(thiazol-2-ylamino)acetyl)-1H-pyrrole-2-carboxamide] | 84 µM | > 100 µM | 0.001 to 0.009 µM | 15 µM | > 100 µM | 0.01 to 0.09 µM
14 | Cc1c(C(=O)C(=O)NCC#N)c(C)n(C)c1C(=O)Nc1ccc(F)c(F)c1 [Compound 81, 4-(2-((cyanomethyl)amino)-2-oxoacetyl)-N-(3,4-difluorophenyl)-1,3,5-trimethyl-1H-pyrrole-2-carboxamide] | 71 µM | > 100 µM | 0.001 to 0.009 µM | 33 µM | 30 µM | 0.1 to 0.9 µM
15 | Cc1c(C(=O)C(=O)NCc2nn[nH]n2)c(C)n(C)c1C(=O)Nc1ccc(F)c(F)c1 [Compound 82, 4-(2-(((2H-tetrazol-5-yl)methyl)amino)-2-oxoacetyl)-N-(3,4-difluorophenyl)-1,3,5-trimethyl-1H-pyrrole-2-carboxamide] | > 100 µM | > 100 µM | 1 to 9 µM | > 100 µM | > 100 µM | 
16 | Cc1c(C(=O)C(=O)NCC#Cc2nccn2C)c(C)n(C)c1C(=O)Nc1ccc(F)c(F)c1 [Compound 83, N-(3,4-difluorophenyl)-1,3,5-trimethyl-4-(2-((3-(1-methyl-1H-imidazol-2-yl)prop-2-yn-1-yl)amino)-2-oxoacetyl)-1H-pyrrole-2-carboxamide] | 42 µM | 7 µM | 1 to 9 µM | 4 µM | 7 µM | 
